In patent publication US20200368312A1 (priority 2017, published 2020):
≈ marks a conversion by molar mass, not a printed value. Read-outs that look alike come from different tables or passages of the source.

Key:
C. perfringens = assay type: cell-based; conditions: C. perfringens MMX 8351 ATCC 13124
[1] = test system: quality control strain ATCC 29213 (MSSA); assay: MIC, CLSI-guided broth susceptibility testing (Example 10); assay type: cell-based, Staphylococcus aureus
Description: (§1) MIC Testing: Glycopeptide compounds were dissolved in 100% DMSO. In vitro activities were determined using CLSI-guided broth susceptibility testing to measure drug minimum inhibitory concentrations (MICs) of the compounds against the quality control strain ATCC 29213 (MSSA) and the MRSA isolate ATCC BAA-1556. Glycopeptides are defined as compounds of Formula (I), and their respective R^1, R^2, R^3 and R^4 groups. X is —O— for each compound in Table 2.

[2] = test system: MRSA isolate ATCC BAA-1556; assay: as above; assay type: cell-based, Staphylococcus aureus
Description: as §1

P. anaerobius = assay: Broth microdilution MIC, P. anaerobius (Table 7); assay type: cell-based; conditions: P. anaerobius MMX 1208 ATCC 27337
S. epidermidis (CoNS) = assay: Broth microdilution MIC, S. epidermidis (CoNS) (Table 7); assay type: cell-based
Clostridium difficile = assay: Broth microdilution MIC, C. difficile, anaerobic, supplemented Brucella Broth (Example 11, Table 7); assay type: cell-based
Staphylococcus aureus = assay: microbe, parasite or virus in culture; assay type: cell-based
S. haemolyticus (CoNS) = assay: Broth microdilution MIC, S. haemolyticus (CoNS) (Table 7); assay type: cell-based; conditions: S. haemolyticus (CoNS) MMX 529 ATCC 29970
P. micros = assay: Broth microdilution MIC, P. micros (Table 7); assay type: cell-based; conditions: P. micros MMX 3546
S. lugdenensis (CoNS) = assay: Broth microdilution MIC, S. lugdenensis (CoNS) (Table 7); assay type: cell-based; conditions: S. lugdenensis (CoNS) MMX 8724
P. acnes = assay: Broth microdilution MIC, P. acnes (Table 7); assay type: cell-based
Enterococci = assay type: cell-based
S. hominis (CoNS) = assay: Broth microdilution MIC, S. hominis (CoNS) (Table 7); assay type: cell-based; conditions: S. hominis (CoNS) MMX 667 ATCC 27844
Streptococci = assay: Broth microdilution MIC, Streptococci (Example 11, Table 7); assay type: cell-based

Structure (SMILES): CCCCCCCCCCNCCN[C@@]1(C)C[C@H](O[C@H]2[C@H](Oc3c4cc5cc3Oc3ccc(cc3Cl)[C@@H](O)[C@@H](NC(=O)[C@@H](CC(C)C)NC)C(=O)N[C@@H](CC(N)=O)C(=O)N[C@H]5C(=O)N[C@H]3C(=O)N[C@H](C(=O)N[C@H](C(=O)O)c5cc(O)c(CNCP(=O)(O)O)c(O)c5-c5cc3ccc5O)[C@H](O)c3ccc(c(Cl)c3)O4)O[C@H](CO)[C@@H](O)[C@@H]2O)O[C@@H](C)[C@H]1O [Telavancin]
- MIC (C. perfringens): 0.015 µg/mL (≈ 0.00854 µM)
- MIC Values MSSA 29213 [1]: 0.063 µg/mL (≈ 0.0359 µM)
- MIC Values MRSA 1556 [2]: 0.063 µg/mL (≈ 0.0359 µM)
- MIC (P. anaerobius): 0.03 µg/mL (≈ 0.0171 µM)
- MIC (S. epidermidis (CoNS); S. epidermidis (CoNS) MMX 762, MRSE): 0.12 µg/mL (≈ 0.0684 µM)
- MIC (S. epidermidis (CoNS); S. epidermidis (CoNS) MMX 5145, MRSE): 0.03 µg/mL (≈ 0.0171 µM)
- MIC (Clostridium difficile; C. difficile MMX 4381 ATCC 700057, toxinAB-negative): 0.12 µg/mL (≈ 0.0684 µM)
- MIC (Clostridium difficile; C. difficile MMX 4994 ATCC BAA-1805, ribotype 027): 0.12 µg/mL (≈ 0.0684 µM)
- MIC (Clostridium difficile; C. difficile MMX 5668 ATCC BAA-1870, NAP1/027): 0.12 µg/mL (≈ 0.0684 µM)
- RV40 activity as compared to Comparator (Staphylococcus aureus; MRSA strains (Table 5), […]): 6 ×
- MIC (Staphylococcus aureus; S. aureus MMX 100 ATCC 29213, MSSA (quality control)): 0.06 µg/mL (≈ 0.0342 µM)
- MIC (Staphylococcus aureus; S. aureus MMX 1723, Mu50, VISA): 0.5 µg/mL (≈ 0.285 µM)
- MIC (Staphylococcus aureus; S. aureus MMX 2010, MRSA): 0.06 µg/mL (≈ 0.0342 µM)
- MIC (Staphylococcus aureus; S. aureus MMX 2011 ATCC BAA-1756, MRSA): 0.06 µg/mL (≈ 0.0342 µM)
- MIC (Staphylococcus aureus; S. aureus MMX 2124, VISA, DaptoNS): 0.5 µg/mL (≈ 0.285 µM)
- MIC (Staphylococcus aureus; S. aureus MMX 2490, MSSA): 0.12 µg/mL (≈ 0.0684 µM)
- MIC (Staphylococcus aureus; S. aureus MMX 3982, MRSA): 0.06 µg/mL (≈ 0.0342 µM)
- MIC (Staphylococcus aureus; S. aureus MMX 4658, VISA): 0.12 µg/mL (≈ 0.0684 µM)
- MIC (Staphylococcus aureus; S. aureus MMX 4660, VISA): 0.12 µg/mL (≈ 0.0684 µM)
- MIC (Staphylococcus aureus; S. aureus MMX 4665, hVISA): 0.25 µg/mL (≈ 0.142 µM)
- MIC (Staphylococcus aureus; S. aureus MMX 4675 ATCC BAA-1556, MRSA): 0.06 µg/mL (≈ 0.0342 µM)
- MIC (Staphylococcus aureus; S. aureus MMX 5717 ATCC 33591, MRSA): 0.06 µg/mL (≈ 0.0342 µM)
- MIC (Staphylococcus aureus; S. aureus MMX 5985, MRSA): 0.06 µg/mL (≈ 0.0342 µM)
- MIC (Staphylococcus aureus; S. aureus MMX 5989, Mu3, hVISA): 0.12 µg/mL (≈ 0.0684 µM)
- MIC (Staphylococcus aureus; S. aureus MMX 5999, MRSA): 0.06 µg/mL (≈ 0.0342 µM)
- MIC (Staphylococcus aureus; S. aureus MMX 7899, MRSA): 0.06 µg/mL (≈ 0.0342 µM)
- MIC (Staphylococcus aureus; S. aureus MMX 7900, MRSA): 0.06 µg/mL (≈ 0.0342 µM)
- MIC (Staphylococcus aureus; S. aureus MMX 7901, MRSA): 0.03 µg/mL (≈ 0.0171 µM)
- MIC (Staphylococcus aureus; S. aureus MMX 7902, MRSA): 0.06 µg/mL (≈ 0.0342 µM)
- MIC (Staphylococcus aureus; S. aureus MMX 7903, MRSA): 0.06 µg/mL (≈ 0.0342 µM)
- MIC (Staphylococcus aureus; S. aureus MMX 7907, MSSA): 0.06 µg/mL (≈ 0.0342 µM)
- MIC (Staphylococcus aureus; S. aureus MMX 7908, MSSA): 0.12 µg/mL (≈ 0.0684 µM)
- MIC (S. haemolyticus (CoNS)): 0.06 µg/mL (≈ 0.0342 µM)
- MIC (P. micros): 0.06 µg/mL (≈ 0.0342 µM)
- MIC (S. lugdenensis (CoNS)): 0.06 µg/mL (≈ 0.0342 µM)
- MIC (P. acnes; P. acnes MMX 7942 ATCC 6919): 0.03 µg/mL (≈ 0.0171 µM)
- MIC (P. acnes; P. acnes MMX 7946 ATCC 11827): 0.015 µg/mL (≈ 0.00854 µM)
- MIC (Enterococci; E. faecalis MMX 101 ATCC 29212, VSE): 0.12 µg/mL (≈ 0.0684 µM)
- MIC (Enterococci; E. faecalis MMX 1086, VanA VRE): 1 µg/mL (≈ 0.57 µM)
- MIC (Enterococci; E. faecalis MMX 4176): 0.25 µg/mL (≈ 0.142 µM)
- MIC (Enterococci; E. faecium MMX 173, VanB VRE): 0.06 µg/mL (≈ 0.0342 µM)
- MIC (Enterococci; E. faecium MMX 851, VanA VRE): 2 µg/mL (≈ 1.14 µM)
- MIC (Enterococci; E. faecium MMX 4204): 0.06 µg/mL (≈ 0.0342 µM)
- activity against vancomycin-resistant enterococci (VRE) (Enterococci; VRE, MIC values elevated relative to vancomycin-susceptible enterococci (VSE)): potent activity
- MIC (S. hominis (CoNS)): 0.06 µg/mL (≈ 0.0342 µM)
- MIC (Streptococci; S. agalactiae MMX 427 ATCC 13813): 0.06 µg/mL (≈ 0.0342 µM)
- MIC (Streptococci; S. agalactiae MMX 4088): 0.06 µg/mL (≈ 0.0342 µM)
- MIC (Streptococci; S. agalactiae MMX 4115, erm^R): 0.06 µg/mL (≈ 0.0342 µM)
- MIC (Streptococci; S. anginosus (AGS) MMX 1201 ATCC 33397): 0.06 µg/mL (≈ 0.0342 µM)
- MIC (Streptococci; S. constellatus (AGS) MMX 5677): 0.03 µg/mL (≈ 0.0171 µM)
- MIC (Streptococci; S. dysgalactiae MMX 5121): 0.12 µg/mL (≈ 0.0684 µM)
- MIC (Streptococci; S. dysgalactiae MMX 5123): 0.25 µg/mL (≈ 0.142 µM)
- MIC (Streptococci; S. dysgalactiae MMX 5124): 0.03 µg/mL (≈ 0.0171 µM)
- MIC (Streptococci; S. mitis (MGS) MMX 1205 ATCC 49456): 0.06 µg/mL (≈ 0.0342 µM)
- MIC (Streptococci; S. oralis (MGS) MMX 5821): 0.06 µg/mL (≈ 0.0342 µM)
- MIC (Streptococci; S. pneumoniae MMX 432, PRSP): 0.03 µg/mL (≈ 0.0171 µM)
- MIC (Streptococci; S. pneumoniae MMX 747): 0.015 µg/mL (≈ 0.00854 µM)
- MIC (Streptococci; S. pneumoniae MMX 1195 ATCC 49619, PISP): 0.03 µg/mL (≈ 0.0171 µM)
- MIC (Streptococci; S. pyogenes MMX 404 ATCC 19615): 0.06 µg/mL (≈ 0.0342 µM)
- MIC (Streptococci; S. pyogenes MMX 946, ermR): 0.06 µg/mL (≈ 0.0342 µM)
- MIC (Streptococci; S. pyogenes MMX 8778): 0.06 µg/mL (≈ 0.0342 µM)
